Assay results as given in ChEMBL document CHEMBL4477257, “In vitro cytotoxicity of novel 2,5,7-tricarbo-substituted indoles derived from 2-amino-5-bromo-3-iodoacetophenone” (2016).
Calls of active or inactive are those of the source. The rule behind the calls is not given here.

Experiments:
[1] = test system: HeLa; assay: Cytotoxicity against human HeLa cells assessed as reduction in cell viability after 2 days by MTT assay; type: functional; details: 48 h, read-out: LC50 (the source's name)
[2] = test system: HeLa; assay: Cytotoxicity against human HeLa cells assessed as cell viability at 5 uM after 2 days by MTT assay relative to control; type: functional; details: 48 h, read-out: Activity
[3] = test system: HeLa; assay: Induction of apoptosis in human HeLa cells assessed as caspase 3 activation at 0.75 to 3 uM after 24 hrs by colorimetric analysis; type: functional, cell-based
[4] = test system: HeLa; assay: Induction of apoptosis in human HeLa cells assessed as viable cells at 3 uM after 48 hrs by Annexin V/propidium iodide staining based flow cytometric analysis (reference value: 46.00 +/- 0.56 %); type: functional; details: read-out: Activity
[5] = test system: HeLa; assay: Induction of apoptosis in human HeLa cells assessed as necrotic cells at 3 uM after 48 hrs by Annexin V/propidium iodide staining based flow cytometric analysis (reference value: 21.45 +/- 0.78 %); type: functional
[6] = test system: MCF7; assay: Cytotoxicity against human MCF7 cells assessed as reduction in cell viability after 2 days by MTT assay; type: functional; details: MCF7, 48 h, read-out: LC50 (the source's name)
[7] = test system: HeLa; assay: Cytotoxicity against human HeLa cells assessed as cell viability at 0.5 uM after 2 days by MTT assay relative to control; type: functional; details: 48 h, read-out: Activity
[8] = test system: HeLa; assay: Cytotoxicity against human HeLa cells assessed as cell viability at 2 uM after 2 days by MTT assay relative to control; type: functional; details: 48 h, read-out: Activity
[9] = test system: MCF7; assay: Cytotoxicity against human MCF7 cells assessed as cell viability at 0.5 uM after 2 days by MTT assay relative to control; type: functional; details: MCF7, 48 h, read-out: Activity
[10] = test system: MCF7; assay: Cytotoxicity against human MCF7 cells assessed as cell viability at 5 uM after 2 days by MTT assay relative to control; type: functional; details: MCF7, 48 h, read-out: Activity
[11] = test system: HeLa; assay: Induction of apoptosis in human HeLa cells assessed as late apoptotic cells at 3 uM after 48 hrs by Annexin V/propidium iodide staining based flow cytometric analysis (reference value: 31.80 +/- 0.25 %); type: functional
[12] = test system: HeLa; assay: Cytotoxicity against human HeLa cells assessed as cell viability at 10 uM after 2 days by MTT assay relative to control; type: functional; details: 48 h, read-out: Activity
[13] = test system: MCF7; assay: Cytotoxicity against human MCF7 cells assessed as cell viability at 20 uM after 2 days by MTT assay relative to control; type: functional; details: MCF7, 48 h, read-out: Activity
[14] = test system: MCF7; assay: Cytotoxicity against human MCF7 cells assessed as cell viability at 1 uM after 2 days by MTT assay relative to control; type: functional; details: MCF7, 48 h, read-out: Activity
[15] = test system: HeLa; assay: Induction of apoptosis in human HeLa cells assessed as early apoptotic cells at 3 uM after 48 hrs by Annexin V/propidium iodide staining based flow cytometric analysis (reference value: 0.05 +/- 0.07 %); type: functional
[16] = test system: MCF7; assay: Cytotoxicity against human MCF7 cells assessed as cell viability at 2 uM after 2 days by MTT assay relative to control; type: functional; details: MCF7, 48 h, read-out: Activity
[17] = test system: MCF7; assay: Cytotoxicity against human MCF7 cells assessed as cell viability at 10 uM after 2 days by MTT assay relative to control; type: functional; details: MCF7, 48 h, read-out: Activity
[18] = test system: HeLa; assay: Cytotoxicity against human HeLa cells assessed as cell viability at 20 uM after 2 days by MTT assay relative to control; type: functional; details: 48 h, read-out: Activity
[19] = test system: HeLa; assay: Cytotoxicity against human HeLa cells assessed as cell viability at 1 uM after 2 days by MTT assay relative to control; type: functional; details: 48 h, read-out: Activity

COc1cccc2c1C(=O)c1c(O)c3c(c(O)c1C2=O)C[C@@](O)(C(=O)CO)C[C@@H]3O[C@H]1C[C@H](N)[C@H](O)[C@H](C)O1.Cl [DOXORUBICIN HYDROCHLORIDE]
CC50 [1]: 0.78 µM | viability at 5 µM [2]: 8.53% | Activity [3]: Active | viability at 3 µM [4]: 1.55% | Activity [5]: 40.4% | CC50 [6]: 1.07 µM | viability at 0.5 µM [7]: 62.8% | viability at 2 µM [8]: 39.2% | viability at 0.5 µM [9]: 66.4% | viability at 5 µM [10]: 34% | Activity [11]: 58.5% | viability at 10 µM [12]: 4.43% | viability at 20 µM [13]: 24% | viability at 1 µM [14]: 44% | Activity [15]: 0.95% | viability at 2 µM [16]: 38.4% | viability at 10 µM [17]: 27.5% | viability at 20 µM [18]: 3.41% | viability at 1 µM [19]: 46%
